The values below come from ChEMBL document CHEMBL1135659, “Sulfamide-based inhibitors for carboxypeptidase A. Novel type transition state analogue inhibitors for zinc proteases” (J Med Chem, 2002).

The target of this test is T1, Carboxypeptidase A1 (Bos taurus, UniProt P00730).
T1 sequence (P00730 whole entry): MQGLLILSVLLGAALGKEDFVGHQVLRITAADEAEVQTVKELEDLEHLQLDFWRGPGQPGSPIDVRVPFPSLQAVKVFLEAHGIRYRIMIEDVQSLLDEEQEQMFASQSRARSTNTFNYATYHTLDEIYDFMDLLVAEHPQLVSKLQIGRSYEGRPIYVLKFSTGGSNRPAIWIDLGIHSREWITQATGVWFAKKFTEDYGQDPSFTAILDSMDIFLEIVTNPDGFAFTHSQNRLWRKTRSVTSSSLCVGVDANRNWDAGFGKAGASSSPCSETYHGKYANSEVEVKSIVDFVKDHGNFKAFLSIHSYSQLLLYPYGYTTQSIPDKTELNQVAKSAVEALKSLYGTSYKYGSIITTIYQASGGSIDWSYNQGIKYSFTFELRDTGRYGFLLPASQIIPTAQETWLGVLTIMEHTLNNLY
Kind of test: Inhibitory activity against Carboxypeptidase A.
The molecule `CC(C)NS(=O)(=O)N[C@@H](Cc1ccccc1)C(=O)O` displayed an inhibition constant (Ki) of 610 µM.

As for `CN([C@@H](Cc1ccccc1)C(=O)O)S(N)(=O)=O`, the Ki amounted to 3500 µM.

`CNS(=O)(=O)N[C@@H](Cc1ccccc1)C(=O)O` came in with a Ki of 180 µM.

In turn, `O=C(O)[C@H](Cc1ccccc1)NS(=O)(=O)NCc1ccccc1` showed a Ki of 35 µM.

In turn, `O=C(O)[C@H](Cc1ccccc1)NS(=O)(=O)NCCc1ccccc1` showed a Ki of 180 µM.

The molecule `NS(=O)(=O)NC[C@@H](Cc1ccccc1)C(=O)O` had a Ki of 1400 µM.

For the molecule `NS(=O)(=O)NCC(Cc1ccccc1)C(=O)O` (stereo not drawn), the affinity, expressed as Ki, was 2900 µM.

Molecule `NS(=O)(=O)N[C@H](Cc1ccccc1)C(=O)O` registered an inhibition constant (Ki) of 470 µM.
